# Entries after “also recorded” stand apart in the source; their conditions may differ. Where two headings read alike, the source gives them in different places. Peptide text beside a SMILES is read from it. * marks the point of attachment. Cbz = O=C(OCc1ccccc1)*
# Assays:
# B16F10 tumors [1] = format: in vivo; conditions: for response of B16 melanoma tumors to chemotherapy alone: single moderate dose
# Protocol: In vivo tumor studies: The B16F10 and E.G7 (EL4-OVA) cell lines were obtained from ATCC. B16-OVA (B16F10 transfected with full-length chicken ovalbumin) clone MO4 was according to Falo et al. ((1995) Nat. Med. 1: 649-653). B16F10 cells expressing EGFP protein (B16-GFP cells) were derived using lentiviral transfection. Tumor implantation was performed as described (Sharma et al., (2007) J. Clin. Invest. 117: 2570-2582), using 1×10^5 cells for B16F10 and 1×10^6 cells for other cell lines (large inocula were used to ensure rapid tumor engraftment and immune suppression). […] Tumor volume was calculated from orthogonal diameters using the formula V=L×W^2×π/6. Mice received approved euthanasia when tumors reached a size of 300 mm^2 (product of orthogonal diameters); death was never used a planned endpoint in any study.
# (§1) Tumor implantation was performed as described (Sharma et al., (2007) J. Clin. Invest. 117: 2570-2582). VO-OHpic was given at 10 mg/kg/day i.p., in 10% DMSO/PBS. Cyclophosphamide was given at 150 mg/kg i.p×1 dose; and oxaliplatin at 5 mg/kg i.p×1 dose. Nutlin-3a was administered daily at 10 mg/kg/day i.p. For checkpoint blockade, mice received anti-CTLA-4 plus a cocktail of antibodies against the PD-1 pathway. Vaccines and T cell adoptive transfer studies were performed as described (Sharma et al., (2015) Sci. Advances. 1: e1500845).
# VO-OHpic/CTX, nutlin-3a, oxaliplatin and immunotherapy regimens: The vanadate compound VO-OHpic (Mak et al., (2010) J. Chem. Biol. 3: 157-163) inhibits PTEN activity, and this drug was used to destabilize PTEN+Tregs during chemotherapy. Like all of the available PTEN-inhibitors, VO-OHpic can also affect other phosphatases (Spinelli et al., (2015) Adv. Biol. Regul. 57: 102-111).
# VO-OHpic was given at 10 mg/kg/day i.p., in 10% DMSO/PBS. Cyclophosphamide was given at 150 mg/kg i.p×1 dose. Oxaliplatin was given at 5 mg/kg i.p×1 dose. […] For checkpoint blockade, mice received anti-CTLA-4 (clone 9D9, BioXcell) plus a cocktail of antibodies against the PD-1 pathway: anti-PD-L2, clone TY25 (Yamazaki et al., (2002) J. Immunol. 169: 5538-5545); anti-PD-1, clone J43 (Agata et al., (1996) Int. Immunol. 8: 765-772); and anti-PD-L1, clone MIH7 (Tsushima et al., (2003) Eur. J. Immunol. 33: 2773-2782). A cocktail was used in order to block the PD-1 pathway as completely as possible and thus minimize any peculiarities of a single blocking antibody.
# [2] = tested on: B16F10, EL4, LLC, Tg(Grm1)Epv, MMTV-PyMT; format: in vivo, mouse; conditions: every tumor tested
# Text: Conversely, the effect of chemotherapy could be fully replaced by adoptive transfer of exogenous tumor-specific CD8^+ T cells (e.g., pmel-1 cells) activated with vaccine.
# p53 = assay: Tumors in PTEN^Treg-KO mice treated in vivo with pifithrin; parameters: species or system mouse
# Ly6c+CD11c^NEG cells = assay: Mouse myeloid-cell maturation co-cultures; format: cell-based; conditions: exposed to signals from activated T cells
# Protocol: Mouse myeloid-cell maturation cultures: Maturation co-cultures were performed in V-bottom wells (Nunc 249952 V96), using RPMI-1640 medium with 10% fetal bovine serum, but no added cytokines. The preferred source of myeloid cells was TDLN or spleen from mice bearing B16F10 or E.G7 tumors. Rapid isolation of cells was important for viability, so cells were disaggregated by passing once through a 40 μm mesh, then stained briefly on ice and FACS-sorted into ice-cold medium using low-shear fluidics and a large nozzle (Mo-Flo cell sorter). […] myeloid cells were enriched by sorting for Ly6c^+ that were CD11c^NEG B220^NEG (to exclude dendritic cells and B cells). For some experiments, myeloid cells were sub-fractionated using sort dates based on expression of Gr-1 and CD11b.
# Sorted Ly6c+ myeloid cells were added to co-cultures as previously described (Sharma et al., (2013) Immunity 38: 998-1012). As an inflammatory stimulus for differentiation, CD8^+ effector cells (5×10^4) were FACS-sorted from spleens of either OT-I or pmel-1 mice (both performed equivalently), and added to co-cultures along with 100 nM cognate peptide (SIINFEKL (SEQ ID NO: 1) or hgp100). […]
# CD33+ cells = assay: Human myeloid cell cultures matured with recombinant IFNγ; format: cell-based; conditions: cultured in GM-CSF+IL-6, then IFNγ; FIG. 5A
# Text: (Minneapolis, MN) and isolated by centrifugation over Ficoll-Paque PLUS (GE Healthcare), followed by enrichment for myeloid cells using CD33^+ micro-beads (Miltenyi MACs). Alternatively, myelomonocytic cells were enriched by counter-flow elutriation as previously described (Munn et al., (2002) Science 297: 1867-1870; Munn et al., (2004) J. lmmunol. 172: 4100-4110). Immature myeloid cells were then generated by culture for 7 days as previously described (Koehn et al., (2015) Blood 126: 1621-1628; Lechner et al., (2010) J. lmmunol. 185, 2273-2284). Briefly, PBMC were cultured in RPMI-1640 medium with 10% FBS, 1% Pen/Strep, 1% GlutaMax as well as recombinant human GM-CSF (10 ng/ml, R&D Systems)+IL-6 (10 ng/ml, R&D Systems). Culture growth media was refreshed on days 3 and 6; on day 7, cells were washed and returned to culture in medium without GM-CSF/IL-6. Replicate cultures were then treated for 2 days with or without recombinant human IFNγ (30ng/ml, R&D Systems) to induce maturation, and with or without p53 inhibitor pifithrin-α (10 uM, Sigma). After 48 h, cultures were harvested and stained for CD11b, CD33, phospho-p53-Ser15, IRF5 and BDCA3 (CD141).
# Human peripheral-blood mononuclear cells were enriched for monocytic cells, then cultured in GM-CSF+IL-6 as described by Koehn et al. ((2015) Blood 126: 1621-1628). […]
# E.G7 tumors [3] = assay: E.G7/oxaliplatin model in LysMcre/p53-KO hosts with or without nutlin-3a; format: in vivo, mouse; conditions: LysMcre/p53 knockout mice
# Text: To test whether the relevant target of nutlin in tumors was specifically the p53 expression in myeloid dendritic cells, the E.G7/oxaliplatin model in LysMcre/p53-KO hosts was used. If mice lacked the relevant p53 in tumor-associated myeloid cells, then LysMcre/p53-KO mice should lose all anti-tumor effect of nutlin. For these studies, mice received congenically-marked OT-I cells to monitor whether T cells were still rescued by IL-12 in tumors.
# (§2) Mice with a nuclear-localizing Cre-recombinase knock-in replacing one copy of the Lyz2 gene (Clausen et al., (1999) Transgenic Res. 8: 265-277) (strain 004781, Jax) were crossed as heterozygotes with homozygous p53^flox/flox mice (Marino et al., (2000) Genes Dev. 14: 994-1004) (strain 008462, Jax).
# as §1
# E.G7 tumors [4] = assay: RIP-mOVA mice with E.G7 tumors treated with oxaliplatin with or without nutlin; format: in vivo; conditions: oxaliplatin in the absence of nutlin
# Protocol: A classical model of ICD was first tested in which EL4-OVA lymphoma tumors (clone E.G7) are treated with oxaliplatin chemotherapy (Ghiringhelli et al., (2009) Nat. Med. 15: 1170-1178). E.G7 bears the same model antigen as B16-OVA (described with the RIP-mOVA model, above), so it was possible to test the effects of nutlin plus oxaliplatin in the RIP-mOVA model.
# B16F10 tumors [5] = conditions: VO-OHpic combined with chemotherapy; Sharma et al. 2015; cited from earlier work
# B16F10 tumors [6] = assay: Tumors in knockout hosts treated with VO-OHpic or CTX/VO-OHpic; format: in vivo, mouse; conditions: VO-OHpic alone, LysMcre/p53-KO mice
# Text: as §2
# In vivo tumor studies: The B16F10 and E.G7 (EL4-OVA) cell lines were obtained from ATCC. B16-OVA (B16F10 transfected with full-length chicken ovalbumin) clone MO4 was according to Falo et al. ((1995) Nat. Med. 1: 649-653). B16F10 cells expressing EGFP protein (B16-GFP cells) were derived using lentiviral transfection. Tumor implantation was performed as described (Sharma et al., (2007) J. Clin. Invest. 117: 2570-2582), using 1×10^5 cells for B16F10 and 1×10^6 cells for other cell lines (large inocula were used to ensure rapid tumor engraftment and immune suppression). Tumors were implanted bilaterally in each mouse as a control for reproducible implantation technique; replicate tumor diameters in a single mouse were typically within ±15%. Tumor volume was calculated from orthogonal diameters using the formula V=L×W^2×π/6. Mice received approved euthanasia when tumors reached a size of 300 mm^2 (product of orthogonal diameters); death was never used a planned endpoint in any study.
# Tumor implantation was performed as described (Sharma et al., (2007) J. Clin. Invest. 117: 2570-2582). […]
# T cells = assay: Purified T cells activated with anti-CD3/CD28 with nutlin, IL-12, MG-132; format: cell-based, mouse; conditions: MG-132 in the presence of both nutlin and IL-12
# Text: Regulation of p53 is complex, and it can be targeted by multiple pathways besides MDM2 (Chao C. C. (2015) Clin. Chim. Acta 438: 139-147). If IL-12 is rescuing T cells from nutlin, one possibility is that IL-12 might activate an alternative pathway of p53 degradation, not dependent on MDM2. To test this, purified T cells were activated (without any antigen-presenting cells or other cells) using anti-CD3/CD28 antibodies. T cells were activated in the presence or absence of nutlin with or without addition of recombinant IL-12.
# Finally, to test the hypothesis that IL-12 targeted p53 for proteolytic degradation via an alternated pathway, proteasomal function was inhibited using MG-132. T cells were activated using immobilized CD3/CD28 as above. […] CFSE proliferation tracked inversely with p53 levels. […] While MG-132 affects many intracellular pathways besides p53, these findings support the basic hypothesis that IL-12 bypasses nutlin by targeting p53 for degradation via an alternative route.
# [7] = VO-OHpic alone, WT control mice
compound,measurement,setting,value
O=P1(N(CCCl)CCCl)NCCCO1 (stereo not shown) [cyclophosphamide],response of B16 melanoma tumors to chemotherapy alone,B16F10 tumors [1],highly resistant
same,interaction of chemotherapy drug with PTEN-inhibitor,[2],synergy
pifithrin,emergence of Ly6c+CD103+ dendritic cell subset,p53,selectively prevented the emergence
same,immune surveillance of tumors,p53,allowed tumors to escape immune surveillance
same,differentiation of Ly6c+ MDSCs into Ly6c+CD103+ dendritic cells,Ly6c+CD11c^NEG cells,inhibited
recombinant IFNγ: recombinant human IFNγ (R&D Systems) used to induce maturation,maturation of CD33+ cells,CD33+ cells,"rapidly matured into activated cells expressing CD83, CD141, XCR1 and Batf3"
O=C1[O][Pt]2([NH][C@@H]3CCCC[C@H]3[NH]2)[O]C1=O [oxaliplatin],response to oxaliplatin chemotherapy,E.G7 tumors [3],unable to respond; also recorded: lost all response to treatment
same,anti-tumor effect,E.G7 tumors [4],transient regression
same,autoimmune diabetes,E.G7 tumors [4],rapidly died from progressive autoimmune diabetes
VO-OHpic,destabilization of PTEN+Tregs in tumors,B16F10 tumors [5],rapid and essentially complete destabilization
same,anti-tumor effect,"B16F10 tumors [1]; PTEN-inhibitor by itself, large established tumors, FIG. 12",no effect
same,Ly6c+CD103+ dendritic cells,B16F10 tumors [1]; [7],allowed emergence
same,tumor growth,B16F10 tumors [1]; [7],suppressed tumor growth
same,enhancement of tumor growth by PTEN-inhibitor,B16F10 tumors [1]; systems of the disclosure,does not enhance the growth of tumors
same,tumor growth,B16F10 tumors [6],not suppressed
CC(C)C[C@@H](C=O)NC(=O)[C@H](CC(C)C)NC(=O)[C@H](CC(C)C)NC(=O)OCc1ccccc1 [MG-132] (Cbz-Leu-Leu-Leu-aldehyde),T cell proliferation,T cells,inhibited proliferation
same,p53 levels in activated T cells,T cells,progressively increased p53
Nc1ccn([C@@H]2O[C@H](CO)[C@@H](O)C2(F)F)c(=O)n1 [gemcytabine],response of B16 melanoma tumors to chemotherapy alone,B16F10 tumors [1],highly resistant
same,interaction of chemotherapy drug with PTEN-inhibitor,[2],synergy

# — patent US20180008688A1, “METHOD AND COMPOSITIONS FOR ENHANCING IMMUNOTHERAPEUTIC TREATMENT OF A CANCER” (Augusta University Research Institute, Inc., priority 2016, published 2018)
